Reference: patent US9745304B2, “Amidoimidazopyridazines as MKNK-1 kinase inhibitors” (BAYER PHARMA AKTIENGESELLSCHAFT, priority 2013, dated 2017)

Experiments:
[1] = molecular target: human full-lengt MKNK1 (GST fusion, T344D) (Homo sapiens (Human), UniProt Q9BUB5, T344D); test: MKNK1 kinase assay (TR-FRET, 10 μM ATP); format: biochemical; conditions: 15 min preincubation
Method: MKNK1-inhibitory activity of compounds of the present invention was quantified employing the MKNK1 TR-FRET assay as described in the following paragraphs.
As substrate for the kinase reaction the biotinylated peptide biotin-Ahx-[…] (C-terminus in amide form) was used which can be purchased e.g. form the company Biosyntan (Berlin-Buch, Germany).
For the assay 50 nL of a 100 fold concentrated solution of the test compound in DMSO was pipetted into a black low volume 384 well microtiter plate (Greiner Bio-One, Frickenhausen, Germany), 2 μL of a solution of MKNK1 in aqueous assay buffer [50 mM HEPES pH 7.5, 5 mM magnesium chloride, 1.0 mM dithiothreitol, 0.005% (v/v) Nonidet-P40 (Sigma)] was added and the mixture was incubated for 15 min at 22° C. to allow pre-binding of the test compounds to the enzyme before the start of the kinase reaction. […] The concentration of MKNK1 was adjusted depending of the activity of the enzyme lot and was chosen appropriate to have the assay in the linear range, typical concentrations were in the range of 0.05 μg/ml. The reaction was stopped by the addition of 5 μL of a solution of TR-FRET detection reagents (5 nM streptavidine-XL665 [Cisbio Bioassays, Codolet, France] and 1 nM anti-ribosomal protein S6 (pSer236)-antibody from Invitrogen [#44921G] and 1 nM LANCE EU-W1024 labeled ProteinG [Perkin-Elmer, product no. AD0071]) in an aqueous EDTA-solution (100 mM EDTA, 0.1% (w/v) bovine serum albumin in 50 mM HEPES pH 7.5).
(§1) The resulting mixture was incubated for 1 h at 22° C. to allow the formation of complex between the phosphorylated biotinylated peptide and the detection reagents. Subsequently the amount of phosphorylated substrate was evaluated by measurement of the resonance energy transfer from the Eu-chelate to the streptavidine-XL. Therefore, the fluorescence emissions at 620 nm and 665 nm after excitation at 350 nm were measured in a TR-FRET reader, e.g. a Rubystar (BMG Labtechnologies, Offenburg, Germany) or a Viewlux (Perkin-Elmer). The ratio of the emissions at 665 nm and at 622 nm was taken as the measure for the amount of phosphorylated substrate.

[2] = molecular target: human full-length MKNK1 (GST fusion, T344D) (Homo sapiens (Human), UniProt Q9BUB5, T344D); test: MKNK1 kinase high ATP assay (TR-FRET, 2 mM ATP); format: biochemical; conditions: 15 min preincubation
Method: MKNK1 Kinase High ATP Assay
MKNK1-inhibitory activity at high ATP of compounds of the present invention after their preincubation with MKNK1 was quantified employing the TR-FRET-based MKNK1 high ATP assay as described in the following paragraphs.
As substrate for the kinase reaction the biotinylated peptide biotin-Ahx-[…] (C-terminus in amide form) was used, which can be purchased e.g. from the company Biosyntan (Berlin-Buch, Germany).
For the assay 50 nL of a 100 fold concentrated solution of the test compound in DMSO was pipetted into a black low volume 384 well microtiter plate (Greiner Bio-One, Frickenhausen, Germany), 2 μL of a solution of MKNK1 in aqueous assay buffer [50 mM HEPES pH 7.5, 5 mM magnesium chloride, 1.0 mM dithiothreitol, 0.005% (v/v) Nonidet-P40 (Sigma)] was added and the mixture was incubated for 15 min at 22° C. to allow pre-binding of the test compounds to the enzyme before the start of the kinase reaction. Then the kinase reaction was started by the addition of 3 μL of a solution of adenosine-tri-phosphate (ATP, 3.3 mM=>final conc. in the 5 μL assay volume is 2 mM) and substrate (0.1 μM=>final conc. in the 5 μL assay volume is 0.06 μM) in assay buffer and the resulting mixture was incubated for a reaction time of 30 min at 22° C. The concentration of MKNK1 was adjusted depending of the activity of the enzyme lot and was chosen appropriate to have the assay in the linear range, typical concentrations were in the range of 0.003 μg/mL. The reaction was stopped by the addition of 5 μL of a solution of TR-FRET detection reagents (5 nM streptavidine-XL665 [Cisbio Bioassays, Codolet, France] and 1 nM anti-ribosomal protein S6 (pSer236)-antibody from Invitrogen [#44921G] and 1 nM LANCE EU-W1024 labeled ProteinG [Perkin-Elmer, product no. AD0071]) in an aqueous EDTA-solution (100 mM EDTA, 0.1% (w/v) bovine serum albumin in 50 mM HEPES pH 7.5).
as §1

Sequence of human full-lengt MKNK1 (GST fusion, T344D) (Q9BUB5 other isoform, or with tags, fused parts or gaps T344D): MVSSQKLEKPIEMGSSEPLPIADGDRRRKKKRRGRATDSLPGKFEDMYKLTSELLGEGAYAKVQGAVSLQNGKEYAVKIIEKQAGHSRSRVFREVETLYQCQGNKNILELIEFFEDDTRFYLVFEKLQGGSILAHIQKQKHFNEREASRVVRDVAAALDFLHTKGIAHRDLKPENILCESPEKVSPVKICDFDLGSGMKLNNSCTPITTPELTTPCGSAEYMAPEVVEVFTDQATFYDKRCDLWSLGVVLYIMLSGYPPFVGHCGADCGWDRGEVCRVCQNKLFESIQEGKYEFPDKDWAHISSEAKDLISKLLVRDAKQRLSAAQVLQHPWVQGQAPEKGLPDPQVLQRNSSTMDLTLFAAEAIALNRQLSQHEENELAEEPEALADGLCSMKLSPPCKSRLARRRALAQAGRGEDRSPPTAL
Sequence of human full-length MKNK1 (GST fusion, T344D) (Q9BUB5 other isoform, or with tags, fused parts or gaps T344D): as above

| IC50 [1] [nM] | IC50 [2] [nM] | SMILES |
| --- | --- | --- |
| 8 | 18 | O=C(Cc1ccccc1)Nc1ccc2ncc(-c3cc4ccccc4o3)n2n1 [Example 1, N-[3-(1-Benzofuran-2-yl)imidazo[1,2-b]pyridazin-6-yl]-2-phenylacetamide] |
| 7 | 18 | O=C(Nc1ccc2ncc(-c3cc4ccccc4o3)n2n1)C(O)c1ccccc1 (stereo not drawn) [Example 2, N-[3-(1-Benzofuran-2-yl)imidazo[1,2-b]pyridazin-6-yl]-2-hydroxy-2-phenylacetamide] |
| 3 | 11 | O=C(Nc1ccc2ncc(-c3cc4ccccc4o3)n2n1)C(O)c1cccnc1 (stereo not drawn) [Example 3, N-[3-(1-Benzofuran-2-yl)imidazo[1,2-b]pyridazin-6-yl]-2-hydroxy-2-(pyridin-3-yl)acetamide] |
| 7 | 10 | O=C(Nc1ccc2ncc(-c3cc4ccccc4o3)n2n1)C(O)C1CCCCC1 (stereo not drawn) [Example 4, N-[3-(1-Benzofuran-2-yl)imidazo[1,2-b]pyridazin-6-yl]-2-cyclohexyl-2-hydroxyacetamide] |
| 7 | 12 | O=C(Cc1ccccn1)Nc1ccc2ncc(-c3cc4ccccc4o3)n2n1 [Example 6, N-[3-(1-Benzofuran-2-yl)imidazo[1,2-b]pyridazin-6-yl]-2-(pyridin-2-yl)acetamide] |
| 10 | 23 | O=C(Cc1cccc(F)c1)Nc1ccc2ncc(-c3cc4ccccc4o3)n2n1 [Example 8, N-[3-(1-Benzofuran-2-yl)imidazo[1,2-b]pyridazin-6-yl]-2-(3-fluorophenyl)-acetamide] |
| 3 | 7 | O=C(CCc1cccnc1)Nc1ccc2ncc(-c3cc4ccccc4o3)n2n1 [Example 9, N-[3-(1-Benzofuran-2-yl)imidazo[1,2-b]pyridazin-6-yl]-3-(pyridin-3-yl)propanamide] |
| 36 | 36 | O=C(Nc1ccc2ncc(-c3cc4ccccc4o3)n2n1)c1cc(=O)[nH]c(=O)[nH]1 [Example 10, N-[3-(1-Benzofuran-2-yl)imidazo[1,2-b]pyridazin-6-yl]-2,6-dioxo-1,2,3,6-tetrahydropyrimidine-4-carboxamide] |
| 3 | 7 | O=C1CC[C@@H](CO)N1c1ccc2ncc(-c3cc4ccccc4o3)n2n1 [Example 11, (5S)-1-[3-(1-Benzofuran-2-yl)imidazo[1,2-b]pyridazin-6-yl]-5-(hydroxymethyl)-pyrrolidin-2-one] |
| 4 | 12 | C[C@@H](O)C(=O)Nc1ccc2ncc(-c3cc4ccccc4o3)n2n1 [Example 13, (2R)—N-[3-(1-Benzofuran-2-yl)imidazo[1,2-b]pyridazin-6-yl]-2-hydroxypropanamide] |
| 8 | 20 | C[C@H](O)C(=O)Nc1ccc2ncc(-c3cc4ccccc4o3)n2n1 [Example 14, (2S)—N-[3-(1-Benzofuran-2-yl)imidazo[1,2-b]pyridazin-6-yl]-2-hydroxypropanamide] |
| 3 | 7 | COc1nccc2oc(-c3cnc4ccc(NC(=O)[C@@H](C)O)nn34)cc12 [Example 15, (2R)-2-hydroxy-N-[3-(4-methoxyfuro[3,2-c]pyridin-2-yl)imidazo[1,2-b]-pyridazin-6-yl]propanamide] |
| 10 | 13 | COc1nccc2oc(-c3cnc4ccc(NC(=O)[C@H](C)O)nn34)cc12 [Example 16, (2S)-2-hydroxy-N-[3-(4-methoxyfuro[3,2-c]pyridin-2-yl)imidazo[1,2-b]pyridazin-6-yl]propanamide] |
| 4 | 7 | CC(C)CC(=O)Nc1ccc2ncc(-c3cc4ccccc4o3)n2n1 [Example 17, N-[3-(1-Benzofuran-2-yl)imidazo[1,2-b]pyridazin-6-yl]-3-methylbutanamide] |
| 8 | 6 | O=C(CCc1c[nH]cn1)Nc1ccc2ncc(-c3cc4ccccc4o3)n2n1 [Example 19, N-[3-(1-Benzofuran-2-yl)imidazo[1,2-b]pyridazin-6-yl]-3-(1H-imidazol-4-yl)-propanamide] |
| 14 | 11 | N#Cc1cccc(CC(=O)Nc2ccc3ncc(-c4cc5ccccc5o4)n3n2)c1 [Example 21, N-[3-(1-benzofuran-2-yl)imidazo[1,2-b]pyridazin-6-yl]-2-(3-cyanophenyl)acetamide] |
| 13 | 23 | O=C(CCC1CC1)Nc1ccc2ncc(-c3cc4ccccc4o3)n2n1 [Example 22, N-[3-(1-benzofuran-2-yl)imidazo[1,2-b]pyridazin-6-yl]-3-cyclopropylpropanamide] |
| 9 | 13 | CCN(CC)CCC(=O)Nc1ccc2ncc(-c3cc4ccccc4o3)n2n1 [Example 23, N-[3-(1-benzofuran-2-yl)imidazo[1,2-b]pyridazin-6-yl]-N^3,N^3-diethyl-β-alaninamide] |
| 25 | 36 | N#CC1(C(=O)Nc2ccc3ncc(-c4cc5ccccc5o4)n3n2)CC1 [Example 24, N-[3-(1-benzofuran-2-yl)imidazo[1,2-b]pyridazin-6-yl]-1-cyanocyclopropane carboxamide] |
| 67 | 62 | Cc1cccc(CCC(=O)Nc2ccc3ncc(-c4cc5ccccc5o4)n3n2)c1 [Example 31, N-[3-(1-benzofuran-2-yl)imidazo[1,2-b]pyridazin-6-yl]-3-(3-methylphenyl)propanamide] |
| 17 | 18 | CC1CCN(CC(=O)Nc2ccc3ncc(-c4cc5ccccc5o4)n3n2)CC1 [Example 32, N-[3-(1-benzofuran-2-yl)imidazo[1,2-b]pyridazin-6-yl]-2-(4-methylpiperidin-1-yl)acetamide] |
